What was measured:
P[19] VP8* [1] = target: T1, P[19] VP8* (Human rotavirus A, UniProt A7YCM0); assay: 1H-15N HSQC NMR titration; format: binding; conditions: 20°C, pH 8.0, 10 mM Tris-HCl, 100 mM NaCl; 0.25 mM 15N-labelled VP8*, GST removed
T1 construct: gene VP4; VP8* domain (aa 46-231) of spike polyprotein VP4; E. coli BL21 GST fusion; GST cut with thrombin for NMR, kept in ELISA and glycan array
Source text: 1H-15N HSQC NMR titration on P[19]

P[8] VP8* = target: T2, P[8] VP8* (Human rotavirus A, UniProt A0A509GLV6); assay: ELISA-based oligosaccharide binding; conditions: GST-VP8*; labelled compound (biotin conjugate, multivalent); weak signal
T2 construct: VP8* domain of spike polyprotein VP4; GST fusion from E. coli BL21
Source text: ELISA-based oligosaccharide binding on P[8] […] RVs

P[19] VP8* [2] = target: T1, P[19] VP8*; assay: ELISA-based oligosaccharide binding; conditions: GST-VP8*; labelled compound (biotin conjugate, multivalent); weak signal
Source text: ELISA-based oligosaccharide binding on P[19] […] RVs recognized LNFPI and LNT | Low binding signals were detected for all four P[II] RVs

P[4] VP8* = target: T3, P[4] VP8* (Human rotavirus (SEROTYPE 2 / STRAIN DS1), UniProt P11196); assay: ELISA-based oligosaccharide binding; conditions: GST-VP8*; labelled compound (biotin conjugate, multivalent); weak signal
T3 construct: VP8* domain of spike polyprotein VP4; GST fusion from E. coli BL21; DS1 is only the modelling template
Source text: ELISA-based oligosaccharide binding on P[4] […] RVs

Row | SMILES | Kd (P[19] VP8* [1]) [µM] | ELISA-based oligosaccharide binding (P[8] VP8*) | ELISA-based oligosaccharide binding (P[19] VP8* [2]) | ELISA-based oligosaccharide binding (P[4] VP8*)
1 | CC(=O)N[C@H]1[C@H](O[C@H]2[C@@H](O)[C@@H](CO)O[C@@H](O[C@H]3[C@H](O)[C@@H](O)C(O)O[C@@H]3CO)[C@@H]2O)O[C@H](CO)[C@@H](O)[C@@H]1O[C@@H]1O[C@H](CO)[C@H](O)[C@H](O)[C@H]1O[C@@H]1O[C@@H](C)[C@@H](O)[C@@H](O)[C@@H]1O (stereo partly shown) [LNFPI, Fucα1-2Galβ1-3GlcNAcβ1-3Galβ1-4Glc] | 2600 |  |  | 
2 | CC(=O)N[C@H]1C(O)O[C@H](CO)[C@@H](O)[C@@H]1O[C@@H]1O[C@H](CO)[C@H](O)[C@H](O)[C@H]1O (stereo partly shown) [lacto-N-biose, Galβ1-3GlcNAc] |  | Low binding signals were detected for all four P[II] RVs | Low binding signals were detected for all four P[II] RVs | Low binding signals were detected for all four P[II] RVs

From publication PMC5068545, “Glycan Specificity of P[19] Rotavirus and Comparison with Those of Related P Genotypes” (Journal of Virology, 2016)
